Measured values reported in patent publication US20180250260A1, “METHODS FOR TREATING CANCER” (BOSTON BIOMEDICAL, INC., priority 2015, published 2018).
Several values for one entry are separate records, joined by “and”; a condition that tells them apart may be missing. Equal entries are not always repeated. Entries after “also recorded” stand apart in the source; their conditions may differ.

Key:
p-Stat3 = test: Cancer stemness biomarker immunofluorescence in cancer xenograft tumors: p-Stat3; format: in vivo, mouse xenograft
Protocol: (§1) The effects of 2-acetylnaphtho[2,3-b]furan-4,9-dione, a compound of formula (I), on cancer stem cell markers was examined in cancer xenograft models with and without irinotecan. Human cancer cells were subcutaneously implanted into the right flank of 5-7 weeks old female athymic nude mice. When tumor size reached 200 mm^3, animals were treated with 2-acetylnaphtho[2,3-b]furan-4,9-dione, irinotecan, or a combination of 2-acetylnaphtho[2,3-b]furan-4,9-dione and irinotecan. Tumors were harvested after first dosing.
(§2) The harvested tissues were fixed in 3.7% neutral buffered formaldehyde at 4° C. for overnight. The paraffin was embedded, cut to about 5 microns, and affixed onto positively-charged slides. After being baked and de-paraffinized, the slides with tumor or control tissues were incubated in 10 mM Sodium Citrate (pH 6.0) for 10 minutes. After antigen retrieval, slides were probed with primary antibodies P-STAT3 (rabbit, Cell Signaling, 1:100), 13-Catenine (mouse, Santa Cruz, 1:400) at 4° C. overnight, and then Alexa Fluor fluorescent dyes-conjugated secondary antibodies (1:500, Invitrogen). After mounting, the slides with ProLong mounting medium with DAPI (Invitrogen) were examined under a Zeiss fluorescence microscope with 20× objective, and analyzed with Zen software.

[1] = tested on: advanced gastrointestinal cancer, including CRC and gastric cancer; test: Phase Ib open-label multi-center study, anti-tumor activity (RECIST 1.1); format: in vivo, human; set-up: key to Best Response (RECIST 1.1): partial response (PR); stable disease (SD)
Protocol: (§3) The effects of 2-acetylnaphtho[2,3-b]furan-4,9-dione in combination with FOLFIRI in patients with advanced gastrointestinal cancer, including CRC and gastric cancer, were studied in phase lb open-label, multi-center studies. In one phase lb open label, multi-center clinical study, the safety, tolerability, and preliminary anti-tumor activity of 2-acetylnaphtho[2,3-b]furan-4,9-dione in combination with FOLFIRI, with and without bevacizumab, were assessed in adult patients with advanced gastrointestinal cancer, including CRC and gastric cancer. In addition, the pharmacokinetic profile and the pharmacodynamics (biomarkers) of 2-acetylnaphtho[2,3-b]furan-4,9-dione in combination with FOLFIRI, with and without bevacizumab, were studied, and the recommended phase II dose (RP2D) of 2-acetylnaphtho[2,3-b]furan-4,9-dione and FOLFIRI, with or without bevacizumab, were evaluated.
In total, as of April 2015, 18 patients aged 40-72 were enrolled in the open label, multi-center, phase lb study (see Table 2). These patients were pretreated with an average of >3 prior lines of therapy. Of this group, 10 patients (56%) previously progressed on FOLFIRI.
Of the 17 patients evaluable for response, 8 patients received 2-acetylnaphtho[2,3-b]furan-4,9-dione in combination with FOLFIRI and 9 patients received 2-acetylnaphtho[2,3-b]furan-4,9-dione in combination with FOLFIRI and bevacizumab (see FIG. 7).
(§4) Patients received continuous oral administration of 2-acetylnaphtho[2,3-b]furan-4,9-dione twice daily in 28 day cycles. A FOLFIRI regimen was administered (with or without bevacizumab depending on patient) every 14 days. Specifically, 2-acetylnaphtho[2,3-b]furan-4,9-dione was administered at a dose of 240 mg BID in combination with FOLFIRI (5-FU 400 mg/m^2 bolus with 2400 mg/m^2, irinotecan 180 mg/m^2, and leucovorin 400 mg/m^2 infusion) with or without bevacizumab 5 mg/kg, administered bi-weekly until progression of disease, unacceptable toxicity, or other discontinuation criterion was met.
(§5) Pharmacokinetics and pharmacodynamics were evaluated and objective tumor response was assessed every 8 weeks using Response Evaluation Criteria In Solid Tumors (RECIST 1.1).

[2] = Phase Ib open-label multi-center study, safety and tolerability (adverse events); format: in vivo, human; details: 240 mg BID with FOLFIRI, with and without bevacizumab
Protocol: as §3, §4

β-catenin = test: Cancer stemness biomarker immunofluorescence in cancer xenograft tumors: β-catenin; format: in vivo
Protocol: as §1, §2

[3] = Phase Ib open-label multi-center study, pharmacokinetics; format: in vivo, human; details: 240 mg BID with FOLFIRI, with and without bevacizumab
Protocol: as §3, §5

cancer stem cells = test: Effect on cancer stem cells with and without 5-fluorouracil; format: cell-based; details: FIG. 5
Text: The effects of 2-acetylnaphtho[2,3-b]furan-4,9-dione was examined in cancer stem cells with and without 5-fluorouracil by using methods similar to those disclosed in U.S. pre-grant Publication No. 2012/0252763, Example 3.

[4] = added to irinotecan, cancer xenograft tumor model, FIG. 6
[5] = alone, human colon cancer xenograft tumor (SW480) in nude mice, FIG. 4
[6] = 240 mg BID with FOLFIRI, with and without bevacizumab, 17 evaluable patients
[7] = individual patients, 240 mg BID with chemotherapy backbone FOLFIRI
[8] = individual patients, 240 mg BID with chemotherapy backbone FOLFIRI/Bev
[9] = N = 18, possibly/probably/definitely related

## CC(=O)c1cc2c(o1)C(=O)c1ccccc1C2=O [2-acetylnaphtho[2,3-b]furan-4,9-dione]
p-Stat3; [4]
  irinotecan-enhanced staining for stem cell marker p-Stat3: attenuated
p-Stat3; [5]
  expression of p-Stat3 stem cell marker: dramatically reduced
[1]; 240 mg BID with FOLFIRI, with and without bevacizumab
  regression in the PR patients (RECIST 1.1): 44% and 33%
[1]; 240 mg BID with FOLFIRI, with and without bevacizumab, 7 of 17 patients
  patients with prolonged SD of ≥6 month: 41%
[1]; 240 mg BID with FOLFIRI, with and without bevacizumab, 10 of 17
  evaluable patients with prolonged SD (>6 months): 59%
[1]; 240 mg BID with FOLFIRI, with and without bevacizumab, 15 of 17, FIG. 7
  evaluable patients with reduced target lesions: 88%
[1]; [6]
  number of patients with PR (RECIST 1.1): 2
  number of patients with SD: 14
[1]; 240 mg BID with FOLFIRI, with and without bevacizumab, advanced CRC who had failed prior standard chemotherapy
  patients in whom anti-cancer activity was observed: 94%
[1]; 240 mg BID with FOLFIRI, with and without bevacizumab, evaluable patients
  median progression-free survival (PFS): 5.72 months
[1]; clinical trials, at least in CRC patients
  overall survival of patients with higher expression levels of Stat3 (pStat3) before treatment: prolonged overall survival
[1]; combination with FOLFIRI for 8 weeks, failed prior epirubicin, oxaliplatin and Xeloda, FIG. 8
  response of a patient with gastric adenocarcinoma with a metastatic lesion in the liver: complete response
[1]; in combination with FOLFIRI and bevacizumab
  median survival of pStat3-positive patients compared to pStat3-negative patients: longer median survival
[1]; [7]
  Best Response (RECIST 1.1): SD (4×) and PR (3×)
  Comment on course of disease: prolonged stable disease; also recorded: unequivocal progression; also recorded: prolonged stable disease,; also recorded: prolonged SD/PR,
  Weeks on Study: 25 weeks and 17 weeks (2×) and 16 weeks and 6 weeks and 3 weeks and 34+ weeks and 32+ weeks and 36 weeks
  tumor growth: 8% tumor growth, and 3% tumor growth
  tumor regression: 19% tumor regression, and 44% tumor regression and 23% tumor regression and 17 tumor regression, % and 40% tumor regression, and 83% tumor regression,
[1]; [8]
  Best Response (RECIST 1.1): SD
  Comment on course of disease: prolonged stable disease,; also recorded: prolonged stable disease
  Weeks on Study: 85+ weeks and 29 weeks and 24 weeks and 18 weeks and 15 weeks and 14 weeks and 25 weeks (2×) and 42 weeks
  tumor regression: 25% tumor regression, and 14% tumor regression, and 18% tumor regression, and 4% tumor regression and 10% tumor regression and 21% tumor regression and 1% tumor regression; and 4% tumor regression; and 18% tumor regression;
[1]; with bi-weekly FOLFIRI with or without bevacizumab
  lesion formations in patients previously exposed to FOLFIRI but experiencing progression: reduced lesion formations in almost all of the patients
[2]
  Dehydration Grade 3 related to protocol therapy, number of patients: 1
  dose limiting toxicity or new adverse events: No dose limiting toxicity or new adverse events were seen
  safety of the combination: safely combined
[2]; [9]
  Abdominal Pain Grade 1, number of subjects: 7
  Abdominal Pain Grade 1, percent of total subjects: 38.9%
  Abdominal Pain Grade 2, number of subjects: 4
  Abdominal Pain Grade 2, percent of total subjects: 22.2%
  Abdominal Pain Grade 3, number of subjects: 0
  Abdominal Pain Grade 3, percent of total subjects: 0.0%
  Alopeda Grade 1, number of subjects: 4
  Alopeda Grade 1, percent of total subjects: 22.2%
  Alopeda Grade 2, number of subjects: 0
  Alopeda Grade 2, percent of total subjects: 0.0%
  Alopeda Grade 3, number of subjects: 0
  Alopeda Grade 3, percent of total subjects: 0.0%
  Anemia Grade 1, number of subjects: 2
  Anemia Grade 1, percent of total subjects: 11.1%
  Anemia Grade 2, number of subjects: 2
  Anemia Grade 2, percent of total subjects: 11.1%
  Anemia Grade 3, number of subjects: 0
  Anemia Grade 3, percent of total subjects: 0.0%
  Anorexia Grade 1, number of subjects: 12
  Anorexia Grade 1, percent of total subjects: 66.7%
  Anorexia Grade 2, number of subjects: 3
  Anorexia Grade 2, percent of total subjects: 16.7%
  Anorexia Grade 3, number of subjects: 0
  Anorexia Grade 3, percent of total subjects: 0.0%
  Diarrhea Grade 1, number of subjects: 18
  Diarrhea Grade 1, percent of total subjects: 100.0%
  Diarrhea Grade 2, number of subjects: 9
  Diarrhea Grade 2, percent of total subjects: 50.0%
  Diarrhea Grade 3, number of subjects: 3
  Diarrhea Grade 3, percent of total subjects: 16.7%
  Dry Mouth Grade 1, number of subjects: 2
  Dry Mouth Grade 1, percent of total subjects: 11.1%
  Dry Mouth Grade 2, number of subjects: 1
  Dry Mouth Grade 2, percent of total subjects: 5.6%
  Dry Mouth Grade 3, number of subjects: 0
  Dry Mouth Grade 3, percent of total subjects: 0.0%
  Dysgeusia Grade 1, number of subjects: 5
  Dysgeusia Grade 1, percent of total subjects: 27.8%
  Dysgeusia Grade 2, number of subjects: 0
  Dysgeusia Grade 2, percent of total subjects: 0.0%
  Dysgeusia Grade 3, number of subjects: 0
  Dysgeusia Grade 3, percent of total subjects: 0.0%
  Fatigue Grade 1, number of subjects: 12
  Fatigue Grade 1, percent of total subjects: 66.7%
  Fatigue Grade 2, number of subjects: 10
  Fatigue Grade 2, percent of total subjects: 55.6%
  Fatigue Grade 3, number of subjects: 3
  Fatigue Grade 3, percent of total subjects: 16.7%
  Flatulence Grade 1, number of subjects: 2
  Flatulence Grade 1, percent of total subjects: 11.1%
  Flatulence Grade 2, number of subjects: 1
  Flatulence Grade 2, percent of total subjects: 5.6%
  Flatulence Grade 3, number of subjects: 0
  Flatulence Grade 3, percent of total subjects: 0.0%
  Nausea Grade 1, number of subjects: 14
  Nausea Grade 1, percent of total subjects: 77.8%
  Nausea Grade 2, number of subjects: 6
  Nausea Grade 2, percent of total subjects: 33.3%
  Nausea Grade 3, number of subjects: 0
  Nausea Grade 3, percent of total subjects: 0.0%
  Neutropenia Grade 1, number of subjects: 3
  Neutropenia Grade 1, percent of total subjects: 16.7%
  Neutropenia Grade 2, number of subjects: 2
  Neutropenia Grade 2, percent of total subjects: 11.1%
  Neutropenia Grade 3, number of subjects: 0
  Neutropenia Grade 3, percent of total subjects: 0.0%
  Platelet Count Grade 1, number of subjects: 2
  Platelet Count Grade 1, percent of total subjects: 11.1%
  Platelet Count Grade 2, number of subjects: 0
  Platelet Count Grade 2, percent of total subjects: 0.0%
  Platelet Count Grade 3, number of subjects: 0
  Platelet Count Grade 3, percent of total subjects: 0.0%
  Urine Discolorization Grade 1, number of subjects: 4
  Urine Discolorization Grade 1, percent of total subjects: 22.2%
  Urine Discolorization Grade 2, number of subjects: 0
  Urine Discolorization Grade 2, percent of total subjects: 0.0%
  Urine Discolorization Grade 3, number of subjects: 0
  Urine Discolorization Grade 3, percent of total subjects: 0.0%
  Vomiting Grade 1, number of subjects: 11
  Vomiting Grade 1, percent of total subjects: 61.1%
  Vomiting Grade 2, number of subjects: 3
  Vomiting Grade 2, percent of total subjects: 16.7%
  Vomiting Grade 3, number of subjects: 0
  Vomiting Grade 3, percent of total subjects: 0.0%
  Weight Loss Grade 1, number of subjects: 2
  Weight Loss Grade 1, percent of total subjects: 11.1%
  Weight Loss Grade 2, number of subjects: 0
  Weight Loss Grade 2, percent of total subjects: 0.0%
  Weight Loss Grade 3, number of subjects: 0
  Weight Loss Grade 3, percent of total subjects: 0.0%
β-catenin; [4]
  irinotecan-enhanced staining for stem cell marker β-catenin: attenuated
β-catenin; [5]
  expression of β-catenin stem cell marker: dramatically reduced
[3]
  pharmacokinetic interactions: No significant pharmacokinetic interactions were observed
Cancer stem cells; added to 5-fluorouracil
  5-fluorouracil-induced increase in the number of cancer stem cells: attenuated
Cancer stem cells; combination with 5-fluorouracil
  effect of the combination on cancer stem cell growth: greater than additive effect
